Assay results reported in PubChem BioAssay AID342 (DTP/NCI, 2004).
Where “and” joins values, the source holds several entries; their conditions need not be identical. Equal values may be shown once.

Test system: Swiss mice, Sarcoma 180 sc, mean tumor weight T/C
Assay: NCI In Vivo Anticancer Drug Screen. Data for tumor model Sarcoma 180 (subcutaneous) in Swiss mice
Settings: endpoint: mean tumor weight, higher = larger tumour
How it was run: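 Readout is the ratio of treated-group measurement to vehicle-control measurement (T/C), based on survival or tumor size in mice carrying transplanted tumors.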

[1] = dose: 66.0 mg/kg/injection, schedule: Q01DX007 (ip), vehicle: carboxymethylcellulose (CMC)
[2] = dose: 500.0 mg/kg/injection, schedule: Q01DX007 (ip), vehicle: carboxymethylcellulose (CMC)
[3] = dose: 100.0 mg/kg/injection, schedule: Q01DX007 (ip), vehicle: carboxymethylcellulose (CMC)

CCCCn1cnc2c(Sc3c([N+](=O)[O-])ncn3C)nc(N)nc21
T/C (dose: 2.75 mg/kg/injection, schedule: Q#A X014 (ip), vehicle: methylcellulose (MC)): 95 % of control
T/C (dose: 4.15 mg/kg/injection, schedule: Q#A X014 (ip), vehicle: methylcellulose (MC)): 53 % of control
T/C (dose: 6.25 mg/kg/injection, schedule: Q#A X014 (ip), vehicle: methylcellulose (MC)): 66 % of control
T/C (dose: 9.37 mg/kg/injection, schedule: Q#A X014 (ip), vehicle: methylcellulose (MC)): 51 % of control

O=C1c2cc(Cl)ccc2-c2c(Cl)cc(Cl)cc21
T/C (dose: 25.0 mg/kg/injection, schedule: Q01DX007 (ip), vehicle: methylcellulose (MC)): 100 % of control
T/C (dose: 43.0 mg/kg/injection, schedule: Q01DX007 (ip), vehicle: carboxymethylcellulose (CMC)): 76 % of control
T/C [1]: 65 % of control
T/C (dose: 98.0 mg/kg/injection, schedule: Q01DX007 (ip), vehicle: carboxymethylcellulose (CMC)): 44 % of control and 50 % of control
T/C (dose: 147.0 mg/kg/injection, schedule: Q01DX007 (ip), vehicle: carboxymethylcellulose (CMC)): 36 % of control
T/C (dose: 149.0 mg/kg/injection, schedule: Q01DX007 (ip), vehicle: carboxymethylcellulose (CMC)): 59 % of control
T/C (dose: 222.0 mg/kg/injection, schedule: Q01DX007 (ip), vehicle: carboxymethylcellulose (CMC)): 30 % of control and 44 % of control
T/C (dose: 222.0 mg/kg/injection, schedule: Q01DX007 (ip), vehicle: other): 48 % of control
T/C (dose: 333.0 mg/kg/injection, schedule: Q01DX007 (ip), vehicle: carboxymethylcellulose (CMC)): 25 % of control and 32 % of control
T/C (dose: 333.0 mg/kg/injection, schedule: Q01DX007 (ip), vehicle: other): 39 % of control
T/C [2]: 22 % of control
T/C (dose: 750.0 mg/kg/injection, schedule: Q01DX007 (ip), vehicle: other): 27 % of control

Nc1ncnc2c1ncn2C1OC(CO)CC1O (configuration not stated)
T/C (dose: 37.0 mg/kg/injection, schedule: Q01DX007 (ip), vehicle: carboxymethylcellulose (CMC)): 104 % of control
T/C (dose: 75.0 mg/kg/injection, schedule: Q01DX007 (ip), vehicle: carboxymethylcellulose (CMC)): 122 % of control
T/C (dose: 150.0 mg/kg/injection, schedule: Q01DX007 (ip), vehicle: carboxymethylcellulose (CMC)): 80 % of control
T/C (dose: 300.0 mg/kg/injection, schedule: Q01DX007 (ip), vehicle: carboxymethylcellulose (CMC)): 53 % of control

Nc1ncnc2[nH]ncc12
T/C (dose: 0.55 mg/kg/injection, schedule: Q#A X014 (ip), vehicle: carboxymethylcellulose (CMC)): 74 % of control
T/C (dose: 1.1 mg/kg/injection, schedule: Q#A X014 (ip), vehicle: carboxymethylcellulose (CMC)): 79 % of control
T/C (dose: 2.2 mg/kg/injection, schedule: Q#A X014 (ip), vehicle: carboxymethylcellulose (CMC)): 76 % of control
T/C (dose: 4.4 mg/kg/injection, schedule: Q#A X014 (ip), vehicle: carboxymethylcellulose (CMC)): 87 % of control

CC1NC(=O)NC1CCCCCC(=O)O (configuration not stated)
T/C (dose: 125.0 mg/kg/injection, schedule: Q01DX007 (ip), vehicle: carboxymethylcellulose (CMC)): 103 % of control
T/C (dose: 250.0 mg/kg/injection, schedule: Q01DX007 (ip), vehicle: carboxymethylcellulose (CMC)): 73 % of control
T/C [2]: 122 % of control
T/C (dose: 1000.0 mg/kg/injection, schedule: Q01DX007 (ip), vehicle: carboxymethylcellulose (CMC)): 105 % of control

CC(C)([NH-])CO.CC(C)([NH-])CO.[Cl][Cd][Cl]
T/C (dose: 1.0 mg/kg/injection, schedule: Q#A X014 (ip), vehicle: methylcellulose (MC)): 50 % of control
T/C (dose: 1.0 mg/kg/injection, schedule: Q#A X014 (ip), vehicle: other): 91 % of control
T/C (dose: 1.5 mg/kg/injection, schedule: Q#A X014 (ip), vehicle: methylcellulose (MC)): 113 % of control
T/C (dose: 1.5 mg/kg/injection, schedule: Q#A X014 (ip), vehicle: other): 104 % of control
T/C (dose: 1.75 mg/kg/injection, schedule: Q#A X014 (ip), vehicle: methylcellulose (MC)): 70 % of control
T/C (dose: 2.5 mg/kg/injection, schedule: Q#A X014 (ip), vehicle: methylcellulose (MC)): 85 % of control
T/C (dose: 2.5 mg/kg/injection, schedule: Q#A X014 (ip), vehicle: other): 85 % of control
T/C (dose: 2.65 mg/kg/injection, schedule: Q#A X014 (ip), vehicle: methylcellulose (MC)): 73 % of control
T/C (dose: 3.75 mg/kg/injection, schedule: Q#A X014 (ip), vehicle: methylcellulose (MC)): 73 % of control
T/C (dose: 3.75 mg/kg/injection, schedule: Q#A X014 (ip), vehicle: other): 102 % of control
T/C (dose: 4.0 mg/kg/injection, schedule: Q#A X014 (ip), vehicle: methylcellulose (MC)): 49 % of control
T/C (dose: 6.0 mg/kg/injection, schedule: Q#A X014 (ip), vehicle: methylcellulose (MC)): 36 % of control

COc1ccc2c(c[n+](C)c3c4cc5c(cc4ccc23)OCO5)c1OC
T/C (dose: 50.0 mg/kg/injection, schedule: Q01DX007 (ip), vehicle: carboxymethylcellulose (CMC)): 60 % of control
T/C [3]: 83 % of control

CC(=O)OCC(=O)[C@@]1(O)CC[C@H]2[C@@H]3C[C@@H](C)C4=CC(=O)C=C[C@]4(C)[C@H]3[C@@H](O)C[C@@]21C
T/C (dose: 32.0 mg/kg/injection, schedule: Q01DX007 (sc), vehicle: steriod suspending solution): 51 % of control
T/C (dose: 49.0 mg/kg/injection, schedule: Q01DX007 (sc), vehicle: steriod suspending solution): 56 % of control
T/C (dose: 73.0 mg/kg/injection, schedule: Q01DX007 (sc), vehicle: steriod suspending solution): 40 % of control and 55 % of control
T/C (dose: 109.0 mg/kg/injection, schedule: Q01DX007 (sc), vehicle: steriod suspending solution): 48 % of control
T/C (dose: 111.0 mg/kg/injection, schedule: Q01DX007 (sc), vehicle: steriod suspending solution): 31 % of control
T/C (dose: 165.0 mg/kg/injection, schedule: Q01DX007 (sc), vehicle: steriod suspending solution): 36 % of control and 47 % of control
T/C (dose: 248.0 mg/kg/injection, schedule: Q01DX007 (sc), vehicle: steriod suspending solution): 35 % of control
T/C (dose: 251.0 mg/kg/injection, schedule: Q01DX007 (sc), vehicle: steriod suspending solution): 33 % of control
T/C (dose: 375.0 mg/kg/injection, schedule: Q01DX007 (sc), vehicle: steriod suspending solution): 31 % of control

CC(C)[C@]1(O)CC[C@H]2[C@@H]3CCc4cc(O)ccc4[C@H]3CC[C@@]21C
T/C (dose: 2.5 mg/kg/injection, schedule: Q01DX007 (sc), vehicle: steriod suspending solution): 92 % of control
T/C (dose: 5.0 mg/kg/injection, schedule: Q01DX007 (sc), vehicle: steriod suspending solution): 60 % of control
T/C (dose: 10.0 mg/kg/injection, schedule: Q01DX007 (sc), vehicle: steriod suspending solution): 95 % of control

CCCCNC(=O)c1n[se]nc1NC(N)=O
T/C (dose: 15.0 mg/kg/injection, schedule: Q01DX007 (ip), vehicle: carboxymethylcellulose (CMC)): 94 % of control
T/C (dose: 30.0 mg/kg/injection, schedule: Q01DX007 (ip), vehicle: carboxymethylcellulose (CMC)): 114 % of control

CCOC(=O)NP(=O)(N1CC1)N1CC1
T/C (dose: 937.0 micrograms/kg/injection, schedule: Q01DX007 (ip), vehicle: carboxymethylcellulose (CMC)): 113 % of control
T/C (dose: 1875.0 micrograms/kg/injection, schedule: Q01DX007 (ip), vehicle: carboxymethylcellulose (CMC)): 100 % of control
T/C (dose: 7500.0 micrograms/kg/injection, schedule: Q01DX007 (ip), vehicle: carboxymethylcellulose (CMC)): 74 % of control

Nc1ccn(C2OC(CO)C(O)C2O)c(=O)n1 (configuration not stated)
T/C (dose: 8.0 mg/kg/injection, schedule: Q01DX007 (ip), vehicle: saline): 47 % of control and 51 % of control
T/C (dose: 12.0 mg/kg/injection, schedule: Q01DX007 (ip), vehicle: saline): 61 % of control and 70 % of control
T/C (dose: 27.0 mg/kg/injection, schedule: Q01DX007 (ip), vehicle: saline): 51 % of control and 73 % of control
T/C (dose: 40.0 mg/kg/injection, schedule: Q01DX007 (ip), vehicle: saline): 37 % of control and 46 % of control
T/C (dose: 60.0 mg/kg/injection, schedule: Q01DX007 (ip), vehicle: saline): 13 % of control and 16 % of control
T/C (dose: 90.0 mg/kg/injection, schedule: Q01DX007 (ip), vehicle: saline): 10 % of control

C[C@]12C=CC(=O)C=C1CC[C@@H]1[C@@H]2[C@@H](O)C[C@@]2(C)[C@H]1CC[C@]2(O)C(=O)COC(=O)C1CCCC1
T/C (dose: 3.5 mg/kg/injection, schedule: Q#A X014 (sc), vehicle: water): 68 % of control
T/C (dose: 5.0 mg/kg/injection, schedule: Q#A X014 (sc), vehicle: water): 35 % of control
T/C (dose: 7.5 mg/kg/injection, schedule: Q#A X014 (sc), vehicle: water): 49 % of control
T/C (dose: 11.5 mg/kg/injection, schedule: Q#A X014 (sc), vehicle: water): 47 % of control
T/C (dose: 17.5 mg/kg/injection, schedule: Q#A X014 (sc), vehicle: water): 32 % of control

CC(NC(=O)C1(N)CCCC1)C(=O)O (configuration not stated)
T/C (dose: 25.0 mg/kg/injection, schedule: Q01DX007 (ip), vehicle: carboxymethylcellulose (CMC)): 91 % of control
T/C [3]: 21 % of control
T/C (dose: 222.0 mg/kg/injection, schedule: Q01DX007 (ip), vehicle: steriod suspending solution): 36 % of control
T/C (dose: 333.0 mg/kg/injection, schedule: Q01DX007 (ip), vehicle: steriod suspending solution): 25 % of control

[N-]=[N+]=NC1(C(=O)O)CCCC1
T/C [1]: 71 % of control
T/C [3]: 60 % of control
T/C (dose: 225.0 mg/kg/injection, schedule: Q01DX007 (ip), vehicle: carboxymethylcellulose (CMC)): 63 % of control
